Measured values from BindingDB's records for doi:10.1016/j.bmcl.2012.11.092 (Vanderbilt University Medical Center, 2012).
Where “and” joins values, the source holds several entries; their conditions need not be identical. Equal values may be shown once.

Target: T1, Muscarinic acetylcholine receptor M1 (Homo sapiens, UniProt P11229)
T1 sequence (P11229 whole entry): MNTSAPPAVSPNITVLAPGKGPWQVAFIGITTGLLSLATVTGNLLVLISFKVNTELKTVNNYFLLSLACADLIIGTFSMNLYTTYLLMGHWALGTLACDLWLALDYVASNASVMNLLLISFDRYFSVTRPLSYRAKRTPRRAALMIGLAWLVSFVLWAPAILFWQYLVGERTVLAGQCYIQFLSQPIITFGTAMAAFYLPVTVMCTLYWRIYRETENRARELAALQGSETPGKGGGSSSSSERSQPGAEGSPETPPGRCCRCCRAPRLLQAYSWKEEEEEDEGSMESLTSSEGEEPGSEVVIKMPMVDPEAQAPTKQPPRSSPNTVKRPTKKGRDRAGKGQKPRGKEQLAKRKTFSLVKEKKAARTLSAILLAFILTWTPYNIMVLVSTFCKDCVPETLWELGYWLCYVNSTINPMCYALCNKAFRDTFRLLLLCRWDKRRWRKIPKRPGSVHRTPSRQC
Test: Positive allosteric modulator activity at human muscarinic M1 receptor by calcium mobilization assay

EC50: 3.31 µM and 3.3 µM
Structure (SMILES): Cn1cc(-c2ccc(CN3C(=O)C(O)(C(F)(F)F)c4ccccc43)c(F)c2)cn1 (stereo unspecified)
